From paper PMC8291485, “Development of New Benzylpiperazine Derivatives as σ1 Receptor Ligands with in Vivo Antinociceptive and Anti-Allodynic Effects” (ACS Chemical Neuroscience, 2021)
Entries after “also recorded” stand apart in the source; their conditions may differ. Where two headings read alike, the source gives them in different places.

What was measured:
[1] = biological target: T1, σ1R (Cavia porcellus, UniProt Q60492); parameters: method as in PMID 27262426; conditions: lead compound 8, selectivity ratio; cited from earlier work
T1 construct: from tissue; host or cells: guinea pig brain membrane homogenates
T1 sequence (Q60492 whole entry): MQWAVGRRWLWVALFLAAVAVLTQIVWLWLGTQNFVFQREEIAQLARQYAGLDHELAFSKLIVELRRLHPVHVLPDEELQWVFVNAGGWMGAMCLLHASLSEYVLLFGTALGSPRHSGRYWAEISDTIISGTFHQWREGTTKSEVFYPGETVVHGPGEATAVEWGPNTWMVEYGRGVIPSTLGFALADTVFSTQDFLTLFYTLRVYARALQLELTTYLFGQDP

[2] = biological target: σ1R; parameters: method as in PMID 22784008, PMID 31258480, PMID 31981633, PMID 32691179, PMID 28644012; conditions: cited from earlier work; for Ki: Figure 1, read-out: Ki σ1
[3] = biological target: T1, σ1R; experiment: σ1R radioligand binding assay ([3H]-pentazocine, guinea pig brain membrane homogenates); conditions: for Ki: mean ± SD of three independent experiments, [3H]-pentazocine, free base; for Ki σ2/Ki σ1: σ1R selectivity ratio over σ2R
Experimental: The binding assay for σ1R was carried out using guinea pig brain membrane homogenates according to DeHaven-Hudkins et al.,[58] while the binding assay for σ2R was performed following experimental procedures described by Mach et al.[59] Inhibitory constants (Ki) were calculated using the radioligand binding analysis software EBDA/Ligand (Elsevier/Biosoft).

[4] = tested on: CCI-induced mechanical allodynia; experiment: Chronic constriction injury (CCI) model, von Frey mechanical allodynia; assay type: in vivo, CD-1 mice; conditions: for anti-allodynic effect in the CCI model (result in words): von Frey, 20–80 min post-injection, 15 10–60 mg/kg i.p. (oxalate salt)
Experimental: CCI was introduced in CD-1 mice that were first anesthetized with isoflurane as described by Hoot et al.[66] and Cirino et al.[35] to induce mechanical allodynia.[51]−[54] After anesthetization, mice were subjected to surgery where an incision was made along the surface of the biceps femoris of the right hind paw.[66] Blunt forceps were used to split the muscle and expose the right sciatic nerve. The tips of two 0.1–10 μL pipet tips facing opposite directions were passed under the sciatic nerve to allow for easy passing of two sutures under the nerve, 1 mm apart. The sutures were tied loosely around the nerve and knotted twice, and the skin was closed with 29 mm skin staples. Mice were given a 7 day recovery period prior to the baseline von Frey testing as described below to confirm the induction of hyperalgesia in each mouse. […] Allodynic mice were then administered (i.p.) either vehicle (saline), morphine (10 mg/kg, i.p.), gabapentin (50 mg/kg, i.p.), CM304 (45 mg/kg, i.p.), or compound 15 (10–60 mg/kg, i.p.). Note that gabapentin was tested 1 h postinjection to circumvent known sedative effects that may confound the assay.[67] Each mouse was then tested for the modulation of tactile allodynia every 20 min up until 80 min post-injection with the use of von Frey testing. The assessment of mechanical allodynia was performed to measure compound 15’s efficacy against CCI-induced allodynia as described.[51]−[54] Mice were habituated on a mesh platform for 1 h prior to testing. Filaments of increasing pressure (0.4–6 g) were applied and then held to the plantar surface of both the injured and uninjured hind paws of mice for approximately 1–2 s prior to drug administration to record baseline responses to a peripheral stimulus. The filaments were applied with increasing strengths, and threshold responses were defined as two hind paw responses per trial of the same filament strength. Control or test compounds were administered (i.p.), and paw-withdrawal thresholds were again recorded from 20 to 80 min postinjection. Each hind paw was tested in a counterbalanced manner. Each time was measured in triplicate and then averaged. Responsiveness was a clear withdrawal, shaking, or licking of the paw. To account for variability between mice, data are presented as the percent of baseline paw withdrawal thresholds following filament stimulation of the ipsilateral hind paw. The following equation was used: % anti-allodynia = 100 × ([mean paw withdrawal force {g} in control group – paw withdrawal force {g} of each mouse]/mean paw withdrawal force [g] in control group).

[5] = biological target: T2, σ2R (Rattus norvegicus, UniProt Q5U3Y7); parameters: method as in PMID 22784008, PMID 31258480, PMID 31981633, PMID 32691179, PMID 28644012; conditions: cited from earlier work
T2 sequence (Q5U3Y7 1-176): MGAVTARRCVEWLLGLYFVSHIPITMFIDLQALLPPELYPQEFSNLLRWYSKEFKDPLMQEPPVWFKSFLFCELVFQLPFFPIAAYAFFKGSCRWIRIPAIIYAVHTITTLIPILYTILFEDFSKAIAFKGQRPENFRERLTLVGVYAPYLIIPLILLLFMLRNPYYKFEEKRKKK

[6] = tested on: formalin-induced inflammatory nociception; experiment: Formalin-induced inflammation assay (time spent licking the paw); assay type: in vivo; conditions: C57BL/6J mice, 3–30 mg/kg i.p.; 15 as oxalate salt
Experimental: After a 10 min pretreatment (i.p.) of vehicle control (saline), CM304 (3–30 mg/kg, i.p.), or compound 15 (3–30 mg/kg, i.p.), an intraplantar (i.pl.) injection of 5% formalin ([…] in 15 μL) was administered into the right hind paw. Time spent licking the right hind paw was recorded in 5 min intervals for 60 min following injection. The last 55 min of assessment was used to determine the inflammatory response stimulus. Data were analyzed as the summed duration of licking hind paw.
All data are presented as mean ± SEM. Significance is indicated as *p < 0.05 and was analyzed using two-way ANOVA with Tukey’s post hoc analysis. Statistical analysis was performed with the use of GraphPad Prism 9.0 software. […]. The rotarod data are expressed as the % change from baseline performance for each animal’s baseline response.

COc1ccc(CN2CCN(C(=O)CCCCC3CCSS3)CC2)cc1 (stereo not drawn) [Compound 8]
Ki σ2/Ki σ1 [1]: 432

OCCCN1CCCC2CC1c1cc(-c3ccc(C(F)(F)F)cc3)ccc12 (stereo not drawn) [Compound 4]
Ki [2]: > 1 µM

COc1ccc(CN2CCN(C(=O)Cc3ccccc3)CC2)cc1 [Compound 22, 1-{4-[(4-Methoxyphenyl)methyl]piperazin-1-yl}-2-phenylethan-1-one]
Ki [3]: 0.145 ± 0.0005 µM | Ki σ2/Ki σ1 [3]: 160 | melting point: 97.6 to 99.8 °C

O=C(CCCCc1ccccc1)N1CCN(Cc2ccc(CO)cc2)CC1 [Compound 24, 1-(4-{[4-(Hydroxymethyl)phenyl]methyl}piperazin-1-yl)-5-phenylpentan-1-one]
Ki [3]: 0.0061 ± 0.0001 µM | Ki σ2/Ki σ1 [3]: 423

FCCC1Cc2ccccc2C2(CCC(N3CCN(C4CCCCC4)CC3)CC2)O1 (stereo not drawn) [trans-7]
Ki [2]: 0.012 µM

FCCC1Cc2ccccc2C2(CCC(N3CCN(C4CCCCC4)CC3)CC2)O1 (stereo not drawn) [cis-7]
Ki [2]: 0.019 µM

O=c1oc2ccc(Cl)cc2n1CCCCN1CCCCCC1 [Compound 6]
Ki [2]: 0.0023 µM

O=c1sc2cc(CCCF)ccc2n1CCN1CCCCCC1 [Compound 1]
time of peak anti-allodynic effect ([4]; CD-1 mice, CM304 45 mg/kg i.p., began to diminish at 60 min): 40 min | anti-allodynic effect in the CCI model (result in words) ([4]; CD-1 mice, CM304 45 mg/kg i.p.): anti-allodynic effects that are comparable to those of gabapentin | Ki [2]: 0.00096 µM | Ki σ2/Ki σ1 ([2]; printed in Figure 1, σ1R selectivity): > 486 | Ki ([5]; Figure 1, read-out: Ki σ2): 0.467 µM

COc1ccc(CN2CCN(C(=O)CCCc3ccccc3)CC2)cc1 [Compound 14, 1-{4-[(4-Methoxyphenyl)methyl]piperazin-1-yl}-4-phenylbutan-1-one]
Ki [3]: 0.0133 ± 0.00022 µM | Ki σ2/Ki σ1 [3]: 124 | melting point: 91 to 93.9 °C

COc1ccc(CN2CCN(C(=O)CCc3ccccc3)CC2)cc1 [Compound 21, 1-{4-[(4-Methoxyphenyl)methyl]piperazin-1-yl}-3-phenylpropan-1-one]
Ki [3]: 0.0088 ± 0.00022 µM | Ki σ2/Ki σ1 [3]: 370

COc1ccc(CN2CCN(C(=O)CCCOc3ccccc3)CC2)cc1 [Compound 20, 1-{4-[(4-Methoxyphenyl)methyl]piperazin-1-yl}-4-phenoxybutan-1-one]
Ki [3]: 0.102 ± 0.0006 µM | Ki σ2/Ki σ1 [3]: 43 | melting point: 88.3 to 91.3 °C

COc1cc2c(cc1OC)CN(CCCCn1c(=O)n(C)c3ccccc31)CC2 [Compound 3, 1-(4-(6,7-dimethoxy-3,4-dihydroisoquinolin-2(1H)-yl)butyl)-3-methyl-1H-benzo[d]imidazol-2(3H)-one]
Ki [2]: 0.56 µM | Ki σ1/Ki σ2 ([5]; printed in Figure 1, σ2R selectivity): > 1,302

COc1ccc(CN2CCN(C(=O)CCCCc3ccccc3)CC2)cc1 [Compound 13, 1-{4-[(4-Methoxyphenyl)methyl]piperazin-1-yl}-5-phenylpentan-1-one]
Ki [3]: 0.0181 ± 0.00044 µM | Ki σ2/Ki σ1 [3]: 64

COc1ccc(CN2CCN(C(=O)CCC3CCCCC3)CC2)cc1 [Compound 15, 3-Cyclohexyl-1-{4-[(4-methoxyphenyl)methyl]piperazin-1-yl}propan-1-one]
Ki [3]: 0.0016 ± 5e-05 µM | Ki σ2/Ki σ1 [3]: 886 | antinociception in the formalin assay (result in words) [6]: dose-dependent (3–60 mg/kg, i.p.) antinociception and anti-allodynic effects; also recorded: significant dose-dependent antinociception; also recorded: dose-dependent increase in % antinociception; also recorded: significant antinociceptive and anti-allodynic effects | paw withdrawal thresholds in the CCI model (result in words) ([4]; 60 mg/kg, i.p., at 20, 60, and 80 min post-injection, p < 0.05): significant increases in withdrawal thresholds | anti-allodynic effect in the CCI model (result in words) ([4]; CD-1 mice, CM304 45 mg/kg i.p.): dose-dependent (3–60 mg/kg, i.p.) antinociception and anti-allodynic effects; also recorded: significant dose-dependent anti-allodynic effects; also recorded: significant antinociceptive and anti-allodynic effects

COc1ccc(CN2CCN(C(=O)/C=C/c3ccccc3)CC2)cc1 [Compound 16, (2E)-1-{4-[(4-Methoxyphenyl)methyl]piperazin-1-yl}-3-phenylprop-2-en-1-one]
Ki [3]: 0.0113 ± 0.00026 µM | Ki σ2/Ki σ1 [3]: 351 | melting point: 120.8 to 122.6 °C

CC(CCCn1c(=O)sc2cc(F)ccc21)N1CCN(C2CCCCC2)CC1 (stereo not drawn) [Compound 5]
Ki [2]: 0.0024 µM
